Usually IC50 stands for the concentration needed to halve the response being measured.

One test relates to MERS-CoV 3CL^pro.
Test: not given
The note with it: cited from earlier work.
On to `COc1cc(O)cc(O)c1C(=O)/C=C/c1ccc(O)cc1` [Helichrysetin], for which the “Inhibition of MERS-CoV 3CL^pro” value is “able to inhibit MERS-CoV 3CL^pro”.

The target of the next test is SARS-CoV-2 main protease (M^pro or 3CL^pro) (Severe acute respiratory syndrome coronavirus 2, UniProt P0DTD1). In words: biochemical. The following applies: In vitro SARS-COV-2 M^pro IC50.
As to `C=C(C)C(C=C[C@@H](C)[C@H]1CC[C@H]2[C@@H]3CC=C4CC(O)CC[C@]4(C)[C@H]3CC[C@]12C)CC` (stereo partly drawn) [Compound 1, 24-β-ethyl-cholesta-5(6),22(23),25(26)-triene-3-ol], the IC50 stood at 12.5 ± 0.64 µM.

The same test, now with this note: In vitro SARS-COV-2 M^pro IC50, FRET-based assay; mean ± SD.
`COc1cc(-c2cc(=O)c3c(O)cc(O)c(OC)c3o2)cc(OC)c1OC` [Compound 11, 5,7-dihydroxy-3′,4′,5′,8-tetramethoxy flavone] displayed an IC50 of 5.07 ± 0.26 µM.
On to `C[C@H]1[C@H](C)CC[C@]2(C)CC[C@]3(C)C(=CC[C@@H]4[C@@]5(C)CC[C@H](O)C(C)(C)[C@@H]5CC[C@]43C)[C@H]12` [Compound 2, α-amyrin], for which 4.18 ± 0.21 µM corresponded to half-maximal inhibition (IC50).
As for `COc1cc(C2CC(=O)c3c(O)cc(O)c(OC)c3O2)ccc1O` (stereo not drawn) [Compound 8, 5,7,4′-trihydroxy-8,3′-dimethoxy flavanone], the IC50 worked out at 27.9 ± 1.42 µM.
`COc1c(O)cc2c(c1O)C(=O)CC(c1ccc(O)cc1)O2` (stereo not drawn) [Compound 9, 5,7,4′-trihydroxy-6-methoxy flavanone] returned an IC50 of 11.8 ± 0.6 µM.
`COc1cc(-c2cc(=O)c3c(O)cc(OC)c(OC)c3o2)ccc1O` [Compound 10, 4′,5-dihydroxy-3′,7,8-trimethoxyflavone] gave a 50% inhibitory concentration (IC50) of 12.8 ± 0.65 µM.
Regarding `CCCCC/C=C\C/C=C\CCCCCCCC(=O)O` [Compound 3, linoleic acid], 20.7 ± 1.05 µM corresponded to half-maximal inhibition (IC50).
The same measure, in the same setting: in the case of `COc1c(O)cc2c(c1O)C(=O)CC(c1cc(O)cc(O)c1)O2` (stereo not drawn) [Compound 13, 3′,5′,5,7-tetrahydroxy-6-methoxyflavanone] it was 5.56 ± 0.28 µM; in that of `O=c1cc(-c2ccc(O)c(O)c2)oc2c([C@@H]3O[C@H](CO)[C@@H](O)[C@H](O)[C@H]3O)c(O)cc(O)c12` [Compound 16, orientin], 27.5 ± 1.4 µM; in that of `Cc1cccc(C)c1OCC(=O)N[C@@H](Cc1ccccc1)[C@@H](O)C[C@H](Cc1ccccc1)NC(=O)[C@H](C(C)C)N1CCCNC1=O` [Lopinavir, reference compound], 0.225 ± 0.01 µM.

Staying with this test, now noted: read-out: In vitro SARS-COV-2 M^pro IC50.
As to `O=c1cc(-c2ccc(O)c(O[C@@H]3O[C@H](CO)[C@@H](O)[C@H](O)[C@H]3O)c2)oc2cc(O)cc(O)c12` [Compound 17, luteolin-3′-O-β-D-glucoside], the IC50 turned out to be 10.1 ± 0.52 µM.

The values are drawn from publication PMC9214608 (RSC Advances, 2022).
